Where “and” joins values, the source holds several entries; their conditions need not be identical. Equal values may be shown once.
What follows are compounds tested against T1, human FSH receptor (Homo sapiens, UniProt P23945) (assay: Antagonistic activity at the human FSH receptor expressed in CHO cells (CRE-luciferase reporter)). Conditions: CHO cells stably transfected with human FSH receptor and CRE/firefly luciferase reporter; 4 hours incubation; read-out: pIC50 (negative logarithm of the IC50 value) (converted).
T1 construct: expressed in transfected cells; host or cells: CHO cells, cotransfected with a CRE/promotor firefly luciferase reporter
T1 sequence (P23945 18-695): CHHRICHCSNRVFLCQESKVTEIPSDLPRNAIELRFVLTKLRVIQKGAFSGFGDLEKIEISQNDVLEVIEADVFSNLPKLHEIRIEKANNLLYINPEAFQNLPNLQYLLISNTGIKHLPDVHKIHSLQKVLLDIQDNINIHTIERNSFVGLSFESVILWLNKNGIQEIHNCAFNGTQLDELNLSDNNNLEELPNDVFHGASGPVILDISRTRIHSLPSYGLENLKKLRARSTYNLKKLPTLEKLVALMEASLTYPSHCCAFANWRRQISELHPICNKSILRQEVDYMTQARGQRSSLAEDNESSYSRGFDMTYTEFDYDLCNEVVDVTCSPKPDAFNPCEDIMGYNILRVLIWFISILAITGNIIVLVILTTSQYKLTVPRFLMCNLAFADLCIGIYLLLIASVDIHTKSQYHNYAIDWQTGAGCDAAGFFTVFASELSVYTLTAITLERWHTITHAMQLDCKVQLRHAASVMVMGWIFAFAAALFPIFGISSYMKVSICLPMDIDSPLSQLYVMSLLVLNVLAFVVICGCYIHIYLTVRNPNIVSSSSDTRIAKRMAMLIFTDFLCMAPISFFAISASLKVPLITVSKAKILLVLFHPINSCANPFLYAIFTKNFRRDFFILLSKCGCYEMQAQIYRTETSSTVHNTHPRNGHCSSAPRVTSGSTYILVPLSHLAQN
Type: cell-based
Method: The FSHR antagonists of the invention have pIC50 values higher than 6 in said assay. The preferred compounds of the invention have pIC50 values higher than 8.
Antagonistic activity of the compounds at the human FSH receptor was determined in Chinese Hamster Ovary (CHO) cells stably transfected with the human FSH receptor and cotransfected with a cAMP responsive element (CRE)/promotor directing the expression of a firefly luciferase reporter gene. […] The cells (7,500 cells/well of a 384 well plate) were incubated in Dulbecco′ minimal essential F12 modified medium (Invitrogen), supplemented with 1 μg/ml bovine insulin, 5 μg/ml human apo-transferrin, 100 U/ml penicillin G and 100 μg/ml streptomycin with the test compounds (concentration between 0.316 nM and 10.0 μM) in duplicate together with […] (which, at this concentration in the absence of test compound, induces 80% of the maximal luciferase stimulation) in a humidified atmosphere (95%) at 5-7% CO2 and 37° C. The final concentration of DMSO was 1%. After 4 hours of incubation, plates were allowed to adjust to room temperature for 1 hour. Then, SteadyLite (Perkin Elmer) solution was added to the wells and cells were allowed to lyse for at least 1 hour at room temperature. Subsequently, luciferase activity was measured in a luminescence counter. The signal is expressed as counts per second (cps). The IC50 (concentration of test compound causing half-maximal (50%) inhibition of the maximally attainable inhibition of the luciferase stimulation by the compound) and efficacy of the compounds were determined using the software program MathIQ (version 2.3, ID Business Solutions Limited).

`COc1cc(OCC2CC2)cc(C(=O)NCC2CCN(c3ncnc(-c4cccc(C(=O)NCCO)c4)n3)CC2)c1` [Example 32H, 3-(cyclopropylmethoxy)-N-((1-(4-(3-(2-hydroxyethylcarbamoyl)phenyl)-1,3,5-triazin-2-yl)piperidin-4-yl)methyl)-5-methoxybenzamide] and `COc1cc(OCC2CC2)cc(C(=O)NCC2CCN(c3ncnc(-c4cccc(C(=O)Nc5nccs5)c4)n3)CC2)c1` [Example 32I, 3-(cyclopropylmethoxy)-5-methoxy-N-((1-(4-(3-(thiazol-2-ylcarbamoyl)phenyl)-1,3,5-triazin-2-yl)piperidin-4-yl)methyl)benzamide] fall in the same range of IC50: 10 to 100 nM for the first, 10 to 100 nM for the second.

`COc1cc(OCC2CC2)cc(C(=O)NCC2CCN(c3ccnc(-c4ccc5oncc5c4)n3)CC2)c1` [Example 33B, N-((1-(2-(benzo[d]isoxazol-5-yl)pyrimidin-4-yl)piperidin-4-yl)methyl)-3-(cyclopropylmethoxy)-5-methoxybenzamide] and `COc1cc(OCC2CC2)cc(C(=O)NCC2CCN(c3ccnc(-c4ccc(F)c(C#N)c4)n3)CC2)c1` [Example 33C, N-((1-(2-(3-cyano-4-fluorophenyl)pyrimidin-4-yl)piperidin-4-yl)methyl)-3-(cyclopropylmethoxy)-5-methoxybenzamide] fall in the same range of IC50: 10 to 100 nM for the first, 10 to 100 nM for the second.

`COc1cc(OCC2CC2)cc(C(=O)NCC2CCN(c3ccnc(-c4cccc(-n5ncc(C(=O)O)c5C)c4)n3)CC2)c1` [Example 33D, 1-(3-(4-(4-((3-(cyclopropylmethoxy)-5-methoxybenzamido)methyl)piperidin-1-yl)pyrimidin-2-yl)phenyl)-5-methyl-1H-pyrazole-4-carboxylic acid] and `COc1cc(OCC2CC2)cc(C(=O)NCC2CCN(c3ccnc(-c4cccc(-n5cccn5)n4)n3)CC2)c1` [Example 33E, N-((1-(2-(6-(1H-pyrazol-1-yl)pyridin-2-yl)pyrimidin-4-yl)piperidin-4-yl)methyl)-3-(cyclopropylmethoxy)-5-methoxybenzamide] fall in the same range of IC50: 10 to 100 nM for the first, 10 to 100 nM for the second.

First: COc1cc(OCC2CC2)cc(C(=O)NCC2CCN(c3ncnc(-c4ccc(O)c(C#N)c4)n3)CC2)c1 [Example 34, N-((1-(4-(3-cyano-4-hydroxyphenyl)-1,3,5-triazin-2-yl)piperidin-4-yl)methyl)-3-(cyclopropylmethoxy)-5-methoxybenzamide]
Second: COc1cc(OCC2CC2)cc(C(=O)NCC2CCN(c3ncnc(-c4cccc(-c5ncc[nH]5)c4)n3)CC2)c1 [Example 40, N-((1-(4-(3-(1H-imidazol-2-yl)phenyl)-1,3,5-triazin-2-yl)piperidin-4-yl)methyl)-3-(cyclopropylmethoxy)-5-methoxybenzamide 2,2,2-trifluoroacetate]
The IC50 of the first is higher: 10 to 100 nM for the first, < 10 nM for the second.

Compared with `COc1cc(OCC2CC2)cc(C(=O)NC2CC23CCN(c2ccnc(-c4cccc(-n5cccn5)c4)n2)CC3)c1` (centres unmarked) [Example 35, N-(6-(2-(3-(1H-pyrazol-1-yl)phenyl)pyrimidin-4-yl)-6-azaspiro[2.5]octan-1-yl)-3-(cyclopropylmethoxy)-5-methoxybenzamide], `COc1cc(OCC2CC2)cc(C(=O)NC(C)C2CCN(c3ccnc(-c4cccc(-n5cccn5)c4)n3)CC2)c1` (centres unmarked) [Example 39, N-(1-(1-(2-(3-(1H-pyrazol-1-yl)phenyl)pyrimidin-4-yl)piperidin-4-yl)ethyl)-3-(cyclopropylmethoxy)-5-methoxybenzamide] is lower in IC50: 10 to 100 nM for the first, < 10 nM for the second.

`COc1cc(OCC2CC2)cc(C(=O)NC(C)C2CCN(c3ncnc(-c4cccc(-c5cc[nH]n5)c4)n3)CC2)c1` (centres unmarked) [Example 37, N-(1-(1-(4-(3-(1H-pyrazol-3-yl)phenyl)-1,3,5-triazin-2-yl)piperidin-4-yl)ethyl)-3-(cyclopropylmethoxy)-5-methoxybenzamide] and `COc1cc(OCC2CC2)cc(C(=O)NC(C)C2CCN(c3ccnc(-c4cccc(C#N)c4)n3)CC2)c1` (centres unmarked) [Example 38, N-(1-(1-(2-(3-cyanophenyl)pyrimidin-4-yl)piperidin-4-yl)ethyl)-3-(cyclopropylmethoxy)-5-methoxybenzamide] cannot be ordered by IC50: < 10 nM for the first, < 10 nM for the second.

First: COc1cc(OCC2CC2)cc(C(=O)NCC2CCN(c3nc(-c4cccc(-c5ncc[nH]5)c4)ncc3F)CC2)c1 [Example 41, N-((1-(2-(3-(1H-imidazol-2-yl)phenyl)-5-fluoropyrimidin-4-yl)piperidin-4-yl)methyl)-3-(cyclopropylmethoxy)-5-methoxybenzamide 2,2,2-trifluoroacetate]
Second: COc1cc(NC(=O)C2CCN(c3ccnc(-c4cccc(-n5cccn5)c4)n3)CC2)cc(OCC2CCCCC2)c1 [Example 45, 1-(2-(3-(1H-pyrazol-1-yl)phenyl)pyrimidin-4-yl)-N-(3-(cyclohexylmethoxy)-5-methoxyphenyl)piperidine-4-carboxamide]
The IC50 of the first is lower: < 10 nM for the first, 10 to 100 nM for the second.

First: COc1cc(NC(=O)C2CCN(c3ccnc(-c4cccc(-n5cccn5)c4)n3)CC2)cc(OCc2ccc(F)cc2)c1 [Example 42, 1-(2-(3-(1H-pyrazol-1-yl)phenyl)pyrimidin-4-yl)-N-(3-(4-fluorobenzoxy)-5-methoxyphenyl)piperidine-4-carboxamide]
Second: COc1cc(NC(=O)C2CCN(c3ccnc(-c4cccc(-n5cccn5)c4)n3)CC2)cc(OCc2cc(C)on2)c1 [Example 43, 1-(2-(3-(1H-pyrazol-1-yl)phenyl)pyrimidin-4-yl)-N-(3-methoxy-5-((5-methylisoxazol-3-yl)methoxy)phenyl)piperidine-4-carboxamide]
The IC50 of the first is higher: 10 to 100 nM for the first, < 10 nM for the second.

Compared with `COc1cc(NC(=O)C2CCN(c3ccnc(-c4cccc(-n5cccn5)c4)n3)CC2)cc(OC(C)C)c1` [Example 44, 1-(2-(3-(1H-pyrazol-1-yl)phenyl)pyrimidin-4-yl)-N-(3-isopropoxy-5-methoxyphenyl)piperidine-4-carboxamide], `COc1cc(NC(=O)C2CCN(c3ccnc(-c4cccc(-n5cccn5)c4)n3)CC2)cc(OC)c1` [Example 51, 1-(2-(3-(1H-pyrazol-1-yl)phenyl)pyrimidin-4-yl)-N-(3,5-dimethoxyphenyl) piperidine-4-carboxamide] is lower in IC50: 10 to 100 nM for the first, < 10 nM for the second.

`Cc1cc(NC(=O)C2CCN(c3ccnc(-c4cccc(-n5cccn5)c4)n3)CC2)cc(OC(F)(F)F)c1` [Example 46, 1-(2-(3-(1H-pyrazol-1-yl)phenyl)pyrimidin-4-yl)-N-(3-methyl-5-(trifluoromethoxy)phenyl)piperidine-4-carboxamide] was tested, and the IC50 was 10 to 100 nM.

With `COc1cc(OCC2CC2)cc(C(=O)NCC2CCN(c3ccnc(-c4cccc(-n5cc(C)cn5)c4)n3)CC2)c1` [Example 33A, 3-(cyclopropylmethoxy)-5-methoxy-N-((1-(2-(3-(4-methyl-1H-pyrazol-1-yl)phenyl)pyrimidin-4-yl)piperidin-4-yl)methyl)benzamide] the IC50 was 10 to 100 nM and < 10 nM.

Source: patent US8993757B2, “N-piperidin-4-yl derivatives” (Merck Sharp & Dohme B.V., priority 2011, dated 2015)
